Results taken from patent US20120196899A1, “METHODS AND PRODUCTS FOR TREATING INFLAMMATION” (Rock Creek Pharmaceuticals, Inc., priority 2010, published 2012).
Several values for one entry are separate records, joined by “and”; a condition that tells them apart may be missing. Identical values can stand only once.

Experiment: Clinical chemistry, day 15
Type: in vivo, Sprague-Dawley rats
Description: On day 15, urine was collected on all surviving animals for urinalysis. The animals were euthanized and bled via cardiac puncture. Blood was collected for hematology, clinical chemistry, and coagulation analysis. Tissues were collected, weighed, and stored in 10% neutral-buffered formalin for possible future analysis.

[1] = anatabine 0.1 mg/kg, female rats, individual animals
[2] = anatabine 0.1 mg/kg, male rats, individual animals
[3] = anatabine 0.75 mg/kg, female rats, individual animals

What does the source list for `C1=CCC(c2cccnc2)NC1` (racemic) [Anatabine, 1,2,3,6-tetrahydro-[2,3′]bipyridinyl]?
CHLORIDE (Mean, F, 0.1 mg/kg): 100.20 mEq/L; CHOLESTEROL (Mean, F, 0.1 mg/kg): 76.40 mg/dL; CREATININE (Mean, F, 0.1 mg/kg): 0.44 mg/dL; GLUCOSE (Mean, F, 0.1 mg/kg): 207.60 mg/dL; PHOSPHORUS (Mean, F, 0.1 mg/kg): 8.08 mg/dL; POTASSIUM (Mean, F, 0.1 mg/kg): 5.82 mEq/L; SODIUM (Mean, F, 0.1 mg/kg): 146.80 mEq/L; CHLORIDE (Mean, F, 0.75 mg/kg): 98.00 mEq/L; CHOLESTEROL (Mean, F, 0.75 mg/kg): 69.80 mg/dL; CREATININE (Mean, F, 0.75 mg/kg): 0.44 mg/dL; GLUCOSE (Mean, F, 0.75 mg/kg): 220.80 mg/dL; PHOSPHORUS (Mean, F, 0.75 mg/kg): 8.64 mg/dL; POTASSIUM (Mean, F, 0.75 mg/kg): 5.88 mEq/L; SODIUM (Mean, F, 0.75 mg/kg): 145.00 mEq/L; CHLORIDE (Mean, M, 0.1 mg/kg): 98.00 mEq/L; CHOLESTEROL (Mean, M, 0.1 mg/kg): 67.20 mg/dL; CREATININE (Mean, M, 0.1 mg/kg): 0.36 mg/dL; PHOSPHORUS (Mean, M, 0.1 mg/kg): 10.82 mg/dL; POTASSIUM (Mean, M, 0.1 mg/kg): 6.40 mEq/L; SODIUM (Mean, M, 0.1 mg/kg): 146.20 mEq/L; CHLORIDE (Mean, M, 0.75 mg/kg): 98.60 mEq/L; CHOLESTEROL (Mean, M, 0.75 mg/kg): 62.80 mg/dL; CREATININE (Mean, M, 0.75 mg/kg): 0.36 mg/dL; GLUCOSE (Mean, M, 0.75 mg/kg): 202.00 mg/dL; PHOSPHORUS (Mean, M, 0.75 mg/kg): 10.92 mg/dL; POTASSIUM (Mean, M, 0.75 mg/kg): 6.12 mEq/L; SODIUM (Mean, M, 0.75 mg/kg): 147.80 mEq/L; ALBUMIN [1]: 3.6 g/dL (3×) and 3.5 g/dL and 3.8 g/dL; ALK PHOSPHATASE [1]: 261 IU/L and 140 IU/L and 209 IU/L and 412 IU/L and 220 IU/L; ALT [1]: 57 IU/L and 43 IU/L and 47 IU/L and 62 IU/L and 39 IU/L; AST [1]: 78 IU/L and 69 IU/L and 70 IU/L and 86 IU/L and 82 IU/L; BUN [1]: 21 mg/dL (2×) and 19 mg/dL (3×); CHLORIDE [1]: 99 mEq/L and 102 mEq/L (2×) and 97 mEq/L and 101 mEq/L; CHOLESTEROL [1]: 90 mg/dL and 74 mg/dL and 65 mg/dL and 66 mg/dL and 87 mg/dL; CREATININE [1]: 0.4 mg/dL (3×) and 0.5 mg/dL (2×); DIR BILIRUBIN [1]: 0 mg/dL; GLOBULIN [1]: 3.1 g/dL (3×) and 3 g/dL; GLUCOSE [1]: 224 mg/dL and 170 mg/dL and 227 mg/dL and 220 mg/dL and 197 mg/dL; PHOSPHORUS [1]: 8.5 mg/dL (2×) and 8.2 mg/dL and 7.4 mg/dL and 7.8 mg/dL; POTASSIUM [1]: 5.4 mEq/L and 6.3 mEq/L and 5.2 mEq/L and 5.5 mEq/L and 6.7 mEq/L; SODIUM [1]: 147 mEq/L and 145 mEq/L; TOT BILIRUBIN [1]: 0 mg/dL; TOT PROTEIN [1]: 6.7 g/dL (2×) and 6.3 g/dL and 6.9 g/dL and 6.6 g/dL; ALBUMIN [2]: 3.4 g/dL (2×) and 3.2 g/dL and 3.1 g/dL (2×); ALK PHOSPHATASE [2]: 470 IU/L and 227 IU/L and 364 IU/L and 358 IU/L and 618 IU/L; ALT [2]: 92 IU/L and 65 IU/L and 74 IU/L and 44 IU/L and 78 IU/L; AST [2]: 97 IU/L and 99 IU/L and 93 IU/L and 85 IU/L and 106 IU/L; BUN [2]: 18 mg/dL (2×) and 21 mg/dL and 14 mg/dL and 19 mg/dL; CHLORIDE [2]: 98 mEq/L and 97 mEq/L (2×) and 99 mEq/L (2×); CHOLESTEROL [2]: 65 mg/dL and 64 mg/dL and 75 mg/dL and 56 mg/dL and 76 mg/dL; CREATININE [2]: 0.4 mg/dL (3×) and 0.3 mg/dL (2×); DIR BILIRUBIN [2]: 0 mg/dL; GLOBULIN [2]: 2.9 g/dL (2×) and 2.6 g/dL and 3.1 g/dL; GLUCOSE [2]: 258 mg/dL and 214 mg/dL and 194 mg/dL and 210 mg/dL; PHOSPHORUS [2]: 10.3 mg/dL (2×) and 10.8 mg/dL; POTASSIUM [2]: 5.9 mEq/L and 6.5 mEq/L and 6.6 mEq/L and 6.9 mEq/L and 6.1 mEq/L; SODIUM [2]: 144 mEq/L and 147 mEq/L; TOT BILIRUBIN [2]: 0 mg/dL; TOT PROTEIN [2]: 6.3 g/dL (2×) and 5.8 g/dL and 5.9 g/dL and 6.2 g/dL; ALBUMIN [3]: 3.5 g/dL (2×) and 3.6 g/dL (2×) and 3.4 g/dL; ALK PHOSPHATASE [3]: 123 IU/L and 142 IU/L and 235 IU/L and 130 IU/L and 160 IU/L; ALT [3]: 63 IU/L and 49 IU/L (2×) and 55 IU/L and 57 IU/L; AST [3]: 95 IU/L and 69 IU/L and 76 IU/L and 54 IU/L and 72 IU/L
